This experiment concerns the target T1, His6-WbbZ (WbbZ pyruvyltransferase) (Klebsiella pneumoniae, UniProt A0A0C4KUT2).
T1 construct: His6-tagged, expressed in E. coli TOP10, Ni-NTA purified
Briefly: PAGE of reaction products; MS and NMR. The format is biochemical. The conditions noted are these: pyruvyl donor, 10 mM PEP; acceptor formed by WbbY; pH 7.5, 10 mM MgCl2, 30 °C.

The record followed here is publication PMC10629545, “Identification of a second glycoform of the clinically prevalent O1 antigen from Klebsiella pneumoniae” (Proceedings of the National Academy of Sciences of the …, 2023).

T1 sequence (A0A0C4KUT2 entry or part of it): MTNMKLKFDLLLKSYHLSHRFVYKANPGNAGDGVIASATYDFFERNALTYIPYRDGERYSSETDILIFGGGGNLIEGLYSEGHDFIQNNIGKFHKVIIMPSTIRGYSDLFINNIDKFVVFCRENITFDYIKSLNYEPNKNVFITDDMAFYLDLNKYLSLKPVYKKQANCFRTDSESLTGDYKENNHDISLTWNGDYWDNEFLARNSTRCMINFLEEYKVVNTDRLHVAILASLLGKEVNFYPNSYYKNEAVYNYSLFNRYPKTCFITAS

As to `C=C(OP(=O)(O)O)C(=O)O` [PEP], the “PAGE of reaction products; MS and NMR” value is “phosphoenolpyruvate (PEP)-dependent reduction of the size of the reaction products”.
